Results on 4 compounds are retold here after US5279543A, “Device for iontophoretic non-invasive sampling or delivery of substances” (priority 1992, dated 1994).

For series [1] the following is noted: charged and uncharged TRH; excised nude mouse skin; cited from earlier work.
Series [2] can be described thus: In vitro iontophoretic sampling of glucose through skin into gel electrodes. To be noted: for Amount Glucose Measured In Gel Electrode per Sample: four time periods; for Iontophoretic Flux sample (amount of glucose sampled in 2 hours): 0.5 mA, (+) electrode; for Sample-glucose: four cells. In kind it is in vitro ADME, hairless mouse (Skh: hr-1). As to the method: In order to show the ability of the method to sample glucose through the skin, in vitro studies are conducted using hairless mouse skin as the skin model and the iontophoretic diffusion cells in FIGS. 1-13. The results here are applicable to in-vivo sampling from a mammal, particularly a human being. Two self-adhesive gel electrodes (Kenzgelelc, by Nitto Electric Industry Co., Limited, Osaka, Japan) are placed on the same side of a singe continuous piece of hairless mouse skin (full thickness-about 0.5 mm) (Skh: hr-1, 8-13 weeks old). Under the skin, radiolabelled (^14 C-U)-glucose having known concentration in solution in phosphate-buffered saline (0.9% sodium chloride) is perfused, pH of phosphate is about 7.4. Temperature is ambient.
In the first set of experiments, following the assembly of the cell and initiation of the glucose solution perfusion, current is applied (0.5 milliampere) for 2 hours. The voltage may vary from about 1 to 10 volts. Usually, it is about 5 volts. The important parameter to keep constant is the applied current. The voltage may vary based upon the electrical resistance of the sampling site. Then the gel electrodes are disconnected and tested for radioactivity content by conventional liquid scintillation counting. […]. […] (Electrical conditions in the experiments--same constant direct current (dc) but as iontophoretic delivery may also operate in pulsed current, etc., (the pulsed approach should also perform in a predictable way for sampling).
the second set of experiments, using similar experimental set-up as before, a (^14 C-U)-glucose solution of 0.34 mg/ml glucose is phosphate buffered saline is perfused, and the gel electrodes are replaced every 30 minutes.
Since the skin for each single experiment comes from a different mouse, evaluation of each single diffusion cell (means--samples collected through the same piece of skin), eliminating the first sample (the first 0.5 hr. is slightly higher than the others due to the experimental conditions) was done. […]

The procedure of series [3]:
(1) Leakage tests (without current) using dye and silicone rubber than skin; (2) leakage tests using dye and skin (without current); and (3) iontophoretic tests using the drug solutions and skin (with and without current). Procedures (1) and (2) were evaluated by visually inspecting the cell. […] The activity of the skin 13 and of the samples taken from the receptor chamber was determined post-experimentally. Each experiment lasts approximately 24 hours, ±2 hours, with samples collected hourly. Receptor fluid 17 was magnetically stirred (27), and the collection flow rate was 10 ml/hr.

Series [4] is described as follows: Iontophoretic sampling in vitro (Example 2). To be noted: 0.5 mA, about 2 hr, about 0.63 mA/cm^2; various concentrations; mean of at least two experiments. The series is classed as in vitro ADME, hairless mouse. As to the method:
Iontophoretic sampling consists of pulling out chemical substances from the body through the skin by means of electricity. In order to test this method, an iontophoretic in-vitro cell is used (FIGS. 1, 2, 3 or 4). Full-thickness hairless mouse skin 13 (8-13 weeks old) is placed between the two parts of the cell. Solutions of radiolabelled drugs of known concentration in phosphate-buffered saline are circulated 10 ml/hr. beneath the skin. On top of the skin there are two self-adhesive gel electrodes, connected to a power supply which is set up in constant current mode (0.5 mA). Current is applied for measured length of time (about 2 hr.) corresponding to about 0.63 mA/cm^2. After the experiment the gel electrodes are taken for scintillation counting, which reflects the amount of drug absorbed by the gel electrodes. Using different drug concentrations with the same electrical current for the same period of time, a linear correlation between the amount is collected by the electrode and drug concentration is expected.

Series [5] can be described thus: In vivo sampling with iontophoresis cell on human forearm. As to conditions: forearm of person; versus in vitro case. The text has this:
The procedure and description above for in vitro sampling is used except that the membrane is replaced by the top of the forearm of a human being. The sampling cell used is the one in FIGS. 7, 8, 9A and 9B.

Series [6] in a line: In vivo iontophoretic sampling (biosensing) in dog. The text has this:
The sampling of the radioactive clonidine in vitro is described above. […] The operator is alerted when to administer an injection clondine to maintain the desired level of clonidine in the test dog.

Series [7] is described as follows: In vitro iontophoretic delivery of P.S.O.S. from chamber 16A. The series is classed as in vitro ADME. As to the method:
(b) P.S.O.S. (Potassium Sucrose Octa Sulfate) P.S.O.S., 0.6 ml of 1.5 mg/ml solution in a boric buffer is placed in chamber 16A and boric acid buffer alone is placed in chamber 16C of FIG. 1, 2 or 3. Using a direct current of 0.5 mA (0.65 mA/cm^2) transport of P.S.O.S. is observed up to 5 μg/hr.

Where “and” joins values, the source holds several entries; their conditions need not be identical. Equal values may be shown once. Entries after “also recorded” stand apart in the source; their conditions may differ. Where a name gives a salt, the structure may show the parent alone.

On to `NC(=O)[C@@H]1CCCN1C(=O)[C@H](Cc1cnc[nH]1)NC(=O)[C@@H]1CCC(=O)N1` [TRH, thyrotropin releasing hormone], for which the “Iontophoretic flux across excised tissue compared with passive diffusion” value in series [1] is listed as “greater than those obtained by passive diffusion alone”.
Take `O=C[C@H](O)[C@@H](O)[C@H](O)[C@H](O)CO` [glucose]: the “S.D. for individual diffusion cells (individual mouse)” value in series [2] (0.34 mg/ml glucose, except cell #3) is recorded as 4 to 9%. Also, the “Amount of glucose sampled, average of four separate cells” value in series [2] (0.34 mg/ml glucose, first 0.5 hr sample eliminated) lay within 0.79 to 0.74 μg. Besides, the “Ratio A/B of glucose sampled” value in series [2] (0.153 vs 1.07 mg/ml (concentration ratio 0.143)) was found to be 0.144. For the same compound, in series [2] (average of samples 1-5 (0 - 2 1/2 hr), 0.34 mg/ml glucose, 15 ml/hr), the “Sample-glucose, Average” value was 0.80 ± 0.19 µg. The “Amount Glucose Measured In Gel Electrode per Sample” value in series [2] (cell 1, 0.34 mg/ml glucose, 15 ml/hr) came out at 0.825 ± 0.041 µg; in series [2] (cell 2, 0.34 mg/ml glucose, 15 ml/hr), 0.963 ± 0.090 µg; in series [2] (cell 3, 0.34 mg/ml glucose, 15 ml/hr) it was 0.530 ± 0.115 µg; in series [2] (cell 5, 0.34 mg/ml glucose, 15 ml/hr) it was 0.727 ± 0.033 µg. The “Correlation between glucose concentration under/in the skin and amount of glucose sampled” value in series [2] (fixed sampling time, same electrical conditions) is reported as “near-perfect linear correlation; also recorded: clear correlation”. Besides, the “Iontophoretic Flux sample (amount of glucose sampled in 2 hours)” value in series [2] (glucose concentration 0.153 mg/ml) was 0.705 μg/2 hr and 0.705 +/- 0.095 μg/2 hr; in series [2] (glucose concentration 1.07 mg/ml), 4.9 μg/2 hr and 4.9 +/- 0.7 μg/2 hr. Further, the Sample-glucose was found to be 0.97 ± 0.12 µg in series [2] (sample 1, 0 - 1/2 hr, 0.34 mg/ml glucose, 15 ml/hr); 0.79 ± 0.09 µg in series [2] (sample 2, 1/2 - 1 hr, 0.34 mg/ml glucose, 15 ml/hr); 0.76 ± 0.10 µg in series [2] (sample 3, 1 - 1 1/2 hr, 0.34 mg/ml glucose, 15 ml/hr); 0.75 ± 0.21 µg in series [2] (sample 4, 1 1/2 - 2 hr, 0.34 mg/ml glucose, 15 ml/hr); 0.74 ± 0.24 µg in series [2] (sample 5, 2 - 2 1/2 hr, 0.34 mg/ml glucose, 15 ml/hr).
Regarding `Clc1cccc(Cl)c1N=C1NCCN1` [clonidine-HCl, Clonidine HCl], in series [3] (0.63 mA/cm^2), the “Rate of penetration through the skin with current” value stood at 15.0 μg/cm^2 /hr. In addition, in series [3] (no current), the “Mean rate of diffusion into the receptor phase (passive transport rate)” value turned out to be 0.05 μg/cm^2 /hr. Moreover, the “Drug found in the buffered saline of chamber 16C” value in series [3] (no current, after 20 hours) is “no drug was found”. In series [3] (with current 0.63 mA/cm^2, approximately 20 hours), the “Amount of labelled drug in the buffered saline of chamber 16C” value worked out at 5 µg. The “Linearity of amount sampled versus drug concentration (FIG. 11 and 12)” value in series [4] is listed as “linearity of the results”. Also, the “Amount of clonidine sampled in vivo” value in series [5] is on record as “comparable to that observed in the in vitro case”. Further, the “Level of radioactive clonidine measured iontophoretically” value in series [6] is “quickly and accurately”.
With `O=S(=O)(O)OC[C@H]1O[C@@](COS(=O)(=O)O)(O[C@H]2O[C@H](COS(=O)(=O)O)[C@@H](OS(=O)(=O)O)[C@H](OS(=O)(=O)O)[C@H]2OS(=O)(=O)O)[C@@H](OS(=O)(=O)O)[C@@H]1OS(=O)(=O)O` [P.S.O.S., Potassium Sucrose Octa Sulfate], the “Transport of P.S.O.S.” value in series [7] (direct current 0.5 mA (0.65 mA/cm^2), 0.6 ml of 1.5 mg/ml solution) is “up to 5 μg/hr”. For the same compound, the “Amount of P.S.O.S. transferred” value in series [7] (printed 'with a current' (comparison, same configuration)) was “only a few nanograms”.
